“And” between values parts separate entries of the source, which are not always exact repeats. Identical values can stand only once. Toxic doses and inconclusive results are not listed. Rule for the calls: active = survival T/C of 150% or more; inactive = T/C below 125% in these data.
System: CD2F1 mice, L1210 leukemia ip, survival T/C
Experiment: NCI In Vivo Anticancer Drug Screen. Data for tumor model L1210 Leukemia (intraperitoneal) in CD2F1 (CDF1) mice
Conditions: endpoint: mean survival time, higher = longer survival
Summary of the method: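 Activity against a transplanted murine tumor was judged by comparing the compound group with a vehicle group. The outcome in the treated animals was divided by that in the controls.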

[1] = dose: 50.0 mg/kg/injection, schedule: Q01DX009 (ip), vehicle: saline with Tween-80
[2] = dose: 100.0 mg/kg/injection, schedule: Q01DX009 (ip), vehicle: saline with Tween-80
[3] = dose: 400.0 mg/kg/injection, schedule: Q01DX009 (ip), vehicle: saline with Tween-80
[4] = dose: 100.0 mg/kg/injection, schedule: Q01DX001 (ip), vehicle: saline with Tween-80
[5] = dose: 200.0 mg/kg/injection, schedule: Q01DX001 (ip), vehicle: saline with Tween-80
[6] = dose: 400.0 mg/kg/injection, schedule: Q01DX001 (ip), vehicle: saline with Tween-80
[7] = dose: 100.0 mg/kg/injection, schedule: Q04DX003 (ip), vehicle: saline with Tween-80
[8] = dose: 200.0 mg/kg/injection, schedule: Q01DX009 (ip), vehicle: saline with Tween-80
[9] = dose: 200.0 mg/kg/injection, schedule: Q04DX003 (ip), vehicle: saline with Tween-80
[10] = dose: 400.0 mg/kg/injection, schedule: Q04DX003 (ip), vehicle: saline with Tween-80
[11] = dose: 25.0 mg/kg/injection, schedule: Q04DX003 (ip), vehicle: Klucel (hydroxypropylcellulose) (HPC)
[12] = dose: 100.0 mg/kg/injection, schedule: Q04DX003 (ip), vehicle: Klucel (hydroxypropylcellulose) (HPC)
[13] = dose: 200.0 mg/kg/injection, schedule: Q04DX003 (ip), vehicle: Klucel (hydroxypropylcellulose) (HPC)
[14] = dose: 100.0 mg/kg/injection, schedule: Q01DX009 (ip), vehicle: other
[15] = dose: 200.0 mg/kg/injection, schedule: Q01DX009 (ip), vehicle: other

Measured: T/C

COC1CCC(/C=C(\C#N)C2CCC(C)CC2)CC1 (stereo not drawn)
inactive: dose: 25.0 mg/kg/injection, schedule: Q01DX009 (ip), vehicle: saline with Tween-80 93 % of control | [1] 91 % of control | [2] 90 % of control and 93 % of control | [3] 92 % of control

CC(C)(C)C1=CC(=O)C(C(C)(C)C)=CC1=O
inactive: [4] 97 % of control | [5] 103 % of control

NCC(O)O.NCC(O)O.NCC(O)O.NCC(O)O.[Mo].[Mo]
inactive: [4] 93 % of control | [5] 89 % of control | [6] 104 % of control

CN(C)N=Nc1cc(C(N)=O)cc(C(N)=O)c1
inactive: dose: 18.75 mg/kg/injection, schedule: Q01DX009 (ip), vehicle: Klucel (hydroxypropylcellulose) (HPC) 101 % of control | dose: 37.5 mg/kg/injection, schedule: Q01DX009 (ip), vehicle: Klucel (hydroxypropylcellulose) (HPC) 106 % of control | dose: 75.0 mg/kg/injection, schedule: Q01DX009 (ip), vehicle: Klucel (hydroxypropylcellulose) (HPC) 124 % of control

Nc1nc2ccccc2c2c1C(=O)NC2=O
inactive: [1] 103 % of control | [2] 100 % of control | [7] 95 % of control | [8] 96 % of control | [9] 91 % of control

CCCCNC(=O)Nc1ccc(C(=O)OCCCC)cc1
inactive: [2] 87 % of control | [7] 101 % of control | [8] 92 % of control | [9] 101 % of control | [3] 92 % of control | [10] 100 % of control

CC(=O)N(C)N=Nc1ccc([N+](=O)[O-])cc1
inactive: [11] 103 % of control | dose: 50.0 mg/kg/injection, schedule: Q04DX003 (ip), vehicle: Klucel (hydroxypropylcellulose) (HPC) 103 % of control | [12] 97 % of control | [13] 114 % of control

[NH-]S(=O)(=O)O.[NH-]S(=O)(=O)O.[NH2-].[NH2-].[Pt+4]
inactive: dose: 10.0 mg/kg/injection, schedule: Q04DX003 (ip), vehicle: saline with Tween-80 95 % of control | dose: 20.0 mg/kg/injection, schedule: Q04DX003 (ip), vehicle: saline with Tween-80 97 % of control | dose: 40.0 mg/kg/injection, schedule: Q04DX003 (ip), vehicle: saline with Tween-80 97 % of control

O=C(/C=N/O)Nc1ccccc1
inactive: [7] 101 % of control | [9] 100 % of control | [10] 95 % of control

COc1ccc(CSc2nn(C3OC(COC(=O)c4ccccc4)C(OC(=O)c4ccccc4)C3OC(=O)c3ccccc3)c(=O)[nH]c2=S)cc1 (stereo not drawn)
inactive: dose: 12.5 mg/kg/injection, schedule: Q01DX005 (ip), vehicle: distilled water + Tween-80 104 % of control | dose: 25.0 mg/kg/injection, schedule: Q01DX005 (ip), vehicle: distilled water + Tween-80 101 % of control | dose: 50.0 mg/kg/injection, schedule: Q01DX005 (ip), vehicle: distilled water + Tween-80 93 % of control | dose: 100.0 mg/kg/injection, schedule: Q01DX005 (ip), vehicle: distilled water + Tween-80 93 % of control | dose: 200.0 mg/kg/injection, schedule: Q01DX005 (ip), vehicle: distilled water + Tween-80 90 % of control

O=CN(O)CC(=O)O.[Zn]
inactive: dose: 12.5 mg/kg/injection, schedule: Q04DX003 (ip), vehicle: saline 96 % of control | dose: 25.0 mg/kg/injection, schedule: Q04DX003 (ip), vehicle: saline 95 % of control

CCCCC(C(=O)OCC)C(=O)c1ccccc1 (stereo not drawn) (tested in a mixture with another compound)
inactive: [7] 100 % of control

COC(C)C(O)(c1ccccc1)c1ccccc1 (stereo not drawn)
inactive: [1] 101 % of control | [2] 101 % of control | [8] 96 % of control

O=c1scc(-c2ccc([N+](=O)[O-])cc2)s1
inactive: dose: 12.5 mg/kg/injection, schedule: Q04DX003 (ip), vehicle: Klucel (hydroxypropylcellulose) (HPC) 104 % of control | [11] 91 % of control

O=c1c(Cl)c2cc3c(cc2c2ccccc12)nc1ccccc1n3Cc1ccc([N+](=O)[O-])cc1
inactive: dose: 100.0 mg/kg/injection, schedule: Q04DX003 (ip), vehicle: saline 95 % of control | dose: 200.0 mg/kg/injection, schedule: Q04DX003 (ip), vehicle: saline 106 % of control | dose: 400.0 mg/kg/injection, schedule: Q04DX003 (ip), vehicle: saline 91 % of control

COC(=O)C1=C(N)CCc2ccccc21
inactive: [2] 91 % of control | [8] 96 % of control | [3] 96 % of control

Cc1cc(=O)c2c(=O)[nH][nH]c2[nH]1
inactive: [2] 98 % of control | [8] 104 % of control

CCCCC1C/C=C/C=C/C=C/C=C/C(OC2OC(C)C(O)C(N)C2O)CC2OC(O)(CC(O)CC3OC3/C=C/C(=O)O1)CC(O)C2C(=O)O (stereo not drawn)
inactive: dose: 3.5 mg/kg/injection, schedule: Q01DX009 (ip), vehicle: saline sonified 104 % of control | dose: 3.5 mg/kg/injection, schedule: Q04DX003 (ip), vehicle: saline sonified 91 % of control | dose: 7.0 mg/kg/injection, schedule: Q01DX009 (ip), vehicle: saline sonified 101 % of control | dose: 7.0 mg/kg/injection, schedule: Q04DX003 (ip), vehicle: saline sonified 93 % of control | dose: 14.0 mg/kg/injection, schedule: Q01DX009 (ip), vehicle: saline sonified 87 % of control | dose: 14.0 mg/kg/injection, schedule: Q04DX003 (ip), vehicle: saline sonified 91 % of control

C1CCC2(CC1)SSC1(CCCCC1)S2
inactive: [14] 108 % of control | [15] 100 % of control | dose: 400.0 mg/kg/injection, schedule: Q01DX009 (ip), vehicle: other 110 % of control

CCCCCOC(=O)CCCc1ccc(N(CCCl)CCCl)cc1
inactive: dose: 12.5 mg/kg/injection, schedule: Q01DX009 (ip), vehicle: saline 118 % of control | dose: 100.0 mg/kg/injection, schedule: Q01DX009 (ip), vehicle: saline 88 % of control

CC(C)CCCC(C)C1CCC2C3CCC4CC(OCN5CCCCC5)CCC4(C)C3CCC12C (stereo not drawn)
inactive: [12] 95 % of control | [13] 92 % of control | dose: 400.0 mg/kg/injection, schedule: Q04DX003 (ip), vehicle: Klucel (hydroxypropylcellulose) (HPC) 92 % of control

CCC(C)(O)C1CC1 (stereo not drawn)
inactive: [4] 98 % of control | [5] 103 % of control | [6] 104 % of control

CCOC(=O)C1(C(=O)OCC)CCC(O)N1C(=O)c1cc2c(cc1[N+](=O)[O-])OCO2 (stereo not drawn)
inactive: dose: 50.0 mg/kg/injection, schedule: Q01DX009 (ip), vehicle: Klucel (hydroxypropylcellulose) (HPC) 97 % of control | dose: 100.0 mg/kg/injection, schedule: Q01DX009 (ip), vehicle: Klucel (hydroxypropylcellulose) (HPC) 101 % of control | dose: 200.0 mg/kg/injection, schedule: Q01DX009 (ip), vehicle: Klucel (hydroxypropylcellulose) (HPC) 101 % of control

CC(C)CCCC(C)C1CCC2C3CCC4CC5OCC(O)CC5CC4(C)C3CCC12C (stereo not drawn)
inactive: [2] 96 % of control | [8] 100 % of control | [3] 96 % of control

O=C(Nc1ccccc1)Oc1c(Cl)cc(Cl)c2ccccc12
inactive: dose: 100.0 mg/kg/injection, schedule: Q04DX002 (ip), vehicle: saline with Tween-80 88 % of control | dose: 200.0 mg/kg/injection, schedule: Q04DX002 (ip), vehicle: saline with Tween-80 88 % of control | dose: 400.0 mg/kg/injection, schedule: Q04DX002 (ip), vehicle: saline with Tween-80 88 % of control

CN(C(=O)Nc1ccccc1)c1ccccc1
inactive: dose: 50.0 mg/kg/injection, schedule: Q01DX009 (ip), vehicle: other 104 % of control | [14] 97 % of control | [15] 97 % of control

Reference: PubChem BioAssay AID256 (DTP/NCI, 2004)
